Active and inactive are the calls of the source. The rule behind the calls is not given here. Where only a bound is given, the exact number is not on record here.

One data set deals with NCI-H292. The data set is described as follows: Cytotoxicity against human NCI-H292 cells assessed as reduction in cell viability after 24 hrs by MTT assay. It counts as functional, cell-based. To be noted: NCI-H292, 24 h. (Tetrazolium assays rely on reduction of a dye to a coloured formazan, in cell work by metabolically active cells.)
In the next data set the test system is HUVEC. The data set is described as follows: Cytotoxicity against HUVEC assessed as reduction in cell viability after 24 hrs by MTT assay. It counts as cell-based. To be noted: Homo sapiens.
Data set [1] deals with A549. The data set is described as follows: Cytotoxicity against human A549 cells assessed as reduction in cell viability after 24 hrs by MTT assay. It counts as functional, cell-based. The following applies: A549, 24 h.
The subject of data set [2] is NCI-H1299. The data set is described as follows: Cytotoxicity against human NCI-H1299 cells assessed as reduction in cell viability after 24 hrs by MTT assay. It counts as functional, cell-based. The following applies: NCI-H1299, 24 h.
For the next data set, the system named is NCI-H460. Kind of data set: Cytotoxicity against human NCI-H460 cells assessed as reduction in cell viability after 24 hrs by MTT assay. It counts as functional, cell-based. To be noted: NCI-H460, 24 h.
Data set [3] is described as follows: Cytotoxicity against human LL24 cells assessed as reduction in cell viability after 24 hrs by MTT assay. It counts as cell-based. To be noted: LL24, 24 h.
Data set [4] is described as follows: Selectivity index, ratio of IC50 for HUVEC to IC50 for human A549 cells. It counts as toxicity. The following applies: HUVEC versus A549 cells, read-out: Ratio IC50.
The nature of data set [5]: Selectivity index, ratio of IC50 for HUVEC to IC50 for human NCI-H292 cells.
The nature of data set [6]: Selectivity index, ratio of IC50 for human LL24 cells to IC50 for human NCI-H1299 cells.
Data set [7] can be described thus: Selectivity index, ratio of IC50 for human LL24 cells to IC50 for human NCI-H460 cells.
A short description of data set [8]: Selectivity index, ratio of IC50 for human LL24 cells to IC50 for human NCI-H292 cells.
Data set [9] is described as follows: Selectivity index, ratio of IC50 for HUVEC to IC50 for human NCI-H1299 cells. It counts as toxicity. To be noted: HUVEC versus NCI-H1299 cells, read-out: Ratio IC50.
Data set [10] is described as follows: Selectivity index, ratio of IC50 for human LL24 cells to IC50 for human A549 cells.
A short description of data set [11]: Selectivity index, ratio of IC50 for HUVEC to IC50 for human NCI-H460 cells. It counts as toxicity. The following applies: HUVEC versus NCI-H460 cells, read-out: Ratio IC50.
Data set [12] relates to A549. The data set is described as follows: Cell cycle arrest in human A549 cells assessed as accumulation at G0/G1 phase at 75 uM after 24 hrs by propidium iodide staining based flow cytometry (reference value: 33.4%). It counts as functional. A general note: In flow cytometry, cells or beads pass a laser one at a time.
In data set [13] the test system is NCI-H1299. Kind of data set: Cell cycle arrest in human NCI-H1299 cells assessed as accumulation at G0/G1 phase after 24 hrs by propidium iodide staining based flow cytometry. It counts as functional.
In data set [14] the test system is A549. Kind of data set: Cell cycle arrest in human A549 cells assessed as decrease in G2/M phase at 50 to 100 uM after 24 hrs by propidium iodide staining based flow cytometry. It counts as functional.
Data set [15] has as its system NCI-H1299. Kind of data set: Cell cycle arrest in human NCI-H1299 cells assessed as accumulation at S phase at 100 uM after 24 hrs by propidium iodide staining based flow cytometry (reference value: 7.8%). It counts as functional.
The test system of data set [16] is NCI-H1299. The data set is described as follows: Cell cycle arrest in human NCI-H1299 cells assessed as accumulation at G0/G1 phase at 100 uM after 24 hrs by propidium iodide staining based flow cytometry (reference value: 39%). It counts as functional.
For data set [17], the system named is A549. Kind of data set: Cell cycle arrest in human A549 cells assessed as accumulation at G0/G1 phase at 100 uM after 24 hrs by propidium iodide staining based flow cytometry (reference value: 33.4%). It counts as functional.
The subject of data set [18] is A549. The data set is described as follows: Cell cycle arrest in human A549 cells assessed as decrease in S phase at 50 to 100 uM after 24 hrs by propidium iodide staining based flow cytometry. It counts as functional.
Data set [19] deals with NCI-H1299. Kind of data set: Cell cycle arrest in human NCI-H1299 cells assessed as accumulation at S phase at 75 uM after 24 hrs by propidium iodide staining based flow cytometry (reference value: 7.8%). It counts as functional.
The test system of data set [20] is A549. Kind of data set: Cell cycle arrest in human A549 cells assessed as accumulation at G0/G1 phase after 24 hrs by propidium iodide staining based flow cytometry. It counts as functional.
In data set [21] the test system is A549. The data set is described as follows: Cell cycle arrest in human A549 cells assessed as accumulation at G0/G1 phase at 50 uM after 24 hrs by propidium iodide staining based flow cytometry (reference value: 33.4%). It counts as functional.
In data set [22] the test system is NCI-H1299. The data set is described as follows: Cell cycle arrest in human NCI-H1299 cells assessed as accumulation at S phase at 50 uM after 24 hrs by propidium iodide staining based flow cytometry (reference value: 7.8%). It counts as functional.
In data set [23] the test system is NCI-H1299. Kind of data set: Cytostatic activity against human NCI-H1299 cells assessed as inhibition of colony formation after 24 hrs measured after 10 days by crystal violet staining based method. It counts as functional, cell-based.
In data set [24] the test system is NCI-H1299. The data set is described as follows: Cell cycle arrest in human NCI-H1299 cells assessed as accumulation at G0/G1 phase at 75 uM after 24 hrs by propidium iodide staining based flow cytometry (reference value: 39%). It counts as functional.
Data set [25] has as its system NCI-H1299. Kind of data set: Cell cycle arrest in human NCI-H1299 cells assessed as accumulation at G0/G1 phase at 50 uM after 24 hrs by propidium iodide staining based flow cytometry (reference value: 39%). It counts as functional.
Data set [26] concerns A549. Kind of data set: Cytostatic activity against human A549 cells assessed as inhibition of colony formation after 24 hrs measured after 10 days by crystal violet staining based method. It counts as functional, cell-based.

For the compound `COc1ccc(CN(C)Cc2ccc3c(c2)OCO3)cc1OC`, the IC50 (in the data set with NCI-H292; in the data set on HUVEC; in the data set on A549 [1]; in the data set with NCI-H1299 [2]; with NCI-H460; in data set [3]) was greater than 200 µM in each case.

`COc1ccc2c(c[n+](C)c3c4cc5c(cc4ccc23)OCO5)c1OC` [CHELERYTHRINE]: the IC50 (as a rule, the concentration at which inhibition is half-maximal) with NCI-H292 stood at 4.96 µM; with HUVEC it was 4.93 µM; in the data set on A549 [1], 7.73 µM; in the data set on NCI-H1299 [2] it was 4.28 µM; with NCI-H460 it was 5.14 µM; in data set [3], 3.73 µM. The selectivity ratio in [4] was 0.64; in [9], 1.15; in [11], 0.96. Moreover, the “Ratio IC50” value is 0.99 in data set [5]; 0.87 in data set [6]; 0.73 in data set [7]; 0.75 in data set [8]; 0.48 in [10].

For `COc1cc(CNCc2ccc3c(c2)OCO3)cc(OC)c1OC.Cl`, the IC50 with NCI-H292 is greater than 200 µM; with HUVEC it was greater than 200 µM; with A549 [1], greater than 200 µM; with NCI-H1299 [2], 107 µM; in the data set on NCI-H460 it was greater than 200 µM; in [3], greater than 200 µM. Also, the “Ratio IC50” value in data set [6] is given as greater than 1.88. Also, the selectivity ratio in data set [9] is greater than 1.88.

As to `COc1ccc(CNCc2ccc3c(c2)OCO3)cc1.Cl`, the IC50 with NCI-H292 was 153 µM; in the data set with HUVEC, greater than 200 µM; in the data set on A549 [1], 124 µM; in the data set with NCI-H1299 [2], 73.7 µM; in the data set with NCI-H460, greater than 200 µM; in data set [3] it was greater than 200 µM. The selectivity ratio was greater than 1.61 in [4] and greater than 2.71 in data set [9]. Moreover, the “Ratio IC50” value in [5] is given as greater than 1.31; in data set [6], greater than 2.71; in data set [8] it was greater than 1.31; in data set [10], greater than 1.61.

Turning to `Cl.c1ccc(CNCc2ccc3c(c2)OCO3)cc1`, the IC50 in the data set on NCI-H292 was greater than 200 µM; in the data set on HUVEC, greater than 200 µM; in the data set on A549 [1], greater than 200 µM; in the data set with NCI-H1299 [2], 67.2 µM; in the data set with NCI-H460, greater than 200 µM; in data set [3] it was greater than 200 µM. The “Ratio IC50” value in data set [6] is given as greater than 2.98. For the same compound, in data set [9], the selectivity ratio is greater than 2.98.

Take `COc1ccc(CNCc2ccc3c(c2)OCO3)cc1O`: the IC50 (with NCI-H292; in the data set on HUVEC; in the data set on A549 [1]; in the data set on NCI-H1299 [2]; in the data set on NCI-H460; in [3]) was greater than 200 µM throughout.

For `COc1cc(CN(C)Cc2ccc3c(c2)OCO3)cc(OC)c1OC`, the IC50 (in the data set with NCI-H292; in the data set with HUVEC; with A549 [1]; in the data set with NCI-H1299 [2]; in the data set with NCI-H460; in data set [3]) was greater than 200 µM in each case.

Turning to `Cl.Oc1ccc(CNCc2ccc3c(c2)OCO3)cc1O`, the IC50 is greater than 200 µM with NCI-H292; greater than 200 µM in the data set with HUVEC; 112 µM in the data set on A549 [1]; greater than 200 µM in the data set on NCI-H1299 [2]; greater than 200 µM with NCI-H460; greater than 200 µM in data set [3]. Moreover, the Activity in the data set with A549 [12] was 49.6%; in the data set on NCI-H1299 [13], “Dose-dependent effect”; in the data set on NCI-H1299 [15] it was 17.7%; in the data set with NCI-H1299 [16], 55.8%; in the data set on A549 [17], 54.3%; with NCI-H1299 [19] it was 20.4%. Also, the Activity result in the data set on A549 [20] was “Dose-dependent effect”; with A549 [21], 45.9%; in the data set on NCI-H1299 [22] it was 26.8%; in the data set on NCI-H1299 [24] it was 65%; with NCI-H1299 [25], 53.5%. Further, the outcome in the data set with A549 [14] and in the data set on A549 [18] was Active. In addition, the selectivity ratio in [4] is greater than 1.78. For the same compound, the inhibition result in the data set on NCI-H1299 [23] and with A549 [26] was “Dose-dependent effect” each time. The “Ratio IC50” value in data set [10] is given as greater than 1.78.

For `CN(Cc1ccccc1)Cc1ccc2c(c1)OCO2.Cl`, the IC50 in the data set on NCI-H292 is greater than 200 µM; with HUVEC, greater than 200 µM; in the data set on A549 [1], greater than 200 µM; in the data set on NCI-H1299 [2] it was 91.2 µM; in the data set on NCI-H460, greater than 200 µM; in data set [3], greater than 200 µM. In addition, the “Ratio IC50” value in data set [6] is recorded as greater than 2.19. Moreover, in data set [9], the selectivity ratio was greater than 2.19.

With `COc1ccc(CN(C)Cc2ccc3c(c2)OCO3)cc1.Cl`, the IC50 was greater than 200 µM with NCI-H292; greater than 200 µM in the data set with HUVEC; greater than 200 µM with A549 [1]; 76.4 µM in the data set on NCI-H1299 [2]; greater than 200 µM with NCI-H460; greater than 200 µM in [3]. In addition, the “Ratio IC50” value in data set [6] is reported as greater than 2.62. Moreover, in data set [9], the selectivity ratio is greater than 2.62.

`COc1ccc(CNCc2ccc3c(c2)OCO3)cc1OC.Cl`: the IC50 in the data set on NCI-H292 was greater than 200 µM; with HUVEC, greater than 200 µM; in the data set with A549 [1], 118 µM; in the data set with NCI-H1299 [2] it was 92.3 µM; in the data set on NCI-H460, greater than 200 µM; in [3], greater than 200 µM. Besides, the figures for the selectivity ratio in data set [4] and in [9] were greater than 1.69 and greater than 2.17, respectively. The “Ratio IC50” value in data set [6] is on record as greater than 2.17; in data set [10], greater than 1.69.

Values taken from ChEMBL document CHEMBL4477272, “Toward chelerythrine optimization: Analogues designed by molecular simplification exhibit selective growth inhibition in non-small-cell lung cancer cells” (Bioorg Med Chem, 2016).
